Results on eleven compounds are retold here after PubChem BioAssay (NCI).

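The compound was tested at five concentrations on cells cultured in 96-well plates, with a 48-hour exposure period. GI50: concentration for 50% inhibition of growth. At the TGI there is no net growth.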

Holding throughout (experiment): inhibition of tumour cell growth, NCI panel, 48 h
In test [1] the test system is SF-268 CNS.
For test [2], the system named is SN12C renal.
Test [3] concerns HOP-62 NSCLC.
The subject of test [4] is OVCAR-8 ovarian.
Test [5] deals with T-47D breast.
Test [6] concerns K-562 leukemia.
The test system of test [7] is HS 578T breast.

Take `COc1cc2ncn(-c3cc(OCc4ccccc4C(F)(F)F)c(C(C)=O)s3)c2cc1OC`: the GI50 in test [1] is above 25 µM; in test [2], above 21.7 µM; in test [3] it was above 25 µM; in test [4], above 25 µM; in test [5], above 25 µM; in test [6], above 25 µM. Further, in test [7], the GI50 is 19.3 µM. Further, the TGI in test [1], in test [2], in test [3], in test [4], in test [5] and in test [6] was above 25 µM in each case. In test [7], this compound showed a TGI above 25 µM.

For the compound `C[C@@H]1CC[C@@H]2[C@@H](C)C[C@H]3[C@@H]4C(C)(C)OC(=O)[C@]4(C)C(=O)[C@@]23C1=O`, the TGI in test [1], in test [2], in test [3], in test [4], in test [5] and in test [6] was above 100 µM in each case. This compound came in with a TGI in test [7] above 100 µM. Further, the GI50 in test [5] was 65.3 µM.

Turning to `CC(C)(C)c1ccc(O)c(CN(Cc2cc(C(C)(C)C)ccc2O)C2CCCCC2)c1`, the TGI was above 53.9 µM in test [1]; 42.1 µM in test [2]; 46.5 µM in test [3]; 42 µM in test [4]; 45 µM in test [5]; 27.9 µM in test [6]. The compound also had a TGI in test [7] of 45.3 µM.

For the compound `CC(O)CN1c2ccccc2Sc2ccc(Cl)cc21` (configuration not stated), the TGI in test [1], in test [2], in test [3], in test [4], in test [5] and in test [6] was above 10 µM each time. In test [7], this compound yielded a TGI above 10 µM.

`CCCCCCN(C)Cc1ccc(OCCOc2ccc(CN(C)CCCCCC)cc2)cc1`: the GI50 is 2.59 µM in test [1]; 1.35 µM in test [2]; 1.48 µM in test [3]; 1.41 µM in test [4]; 1.32 µM in test [5]; 0.452 µM in test [6]. The GI50 in test [7] is 1.47 µM. Moreover, the TGI was 11.8 µM in test [1]; 3.08 µM in test [2]; 3.15 µM in test [3]; 3.16 µM in test [4]; 3.26 µM in test [5]; above 100 µM in test [6]. Moreover, in test [7], the TGI stood at 3.97 µM.

For `COC(=O)C(=O)C(C(=O)C(=O)Nc1ccc(C)cc1)c1nc2ccc(C(=O)c3ccccc3)cc2[nH]c1=O` (configuration not stated), the TGI in test [1], in test [2], in test [3], in test [4], in test [5] and in test [6] was above 100 µM in each case. The same compound came in with a TGI in test [7] above 100 µM.

With `CCOC(=O)c1cc(-c2ccc(OC)c(OC)c2)[nH]c1N/N=C/c1c(Cl)cccc1Cl`, the GI50 is 2.29 µM in test [1]; 3.64 µM in test [2]; 2.51 µM in test [3]; 3.69 µM in test [4]; 5.98 µM in test [5]; 1.69 µM in test [6]. Further, in test [7], the GI50 was 2.71 µM. The TGI in test [1] is 39.9 µM; in test [2] it was 22.3 µM; in test [3] it was 14.5 µM; in test [4] it was above 100 µM; in test [5] it was 55.4 µM; in test [6] it was above 100 µM. The TGI in test [7] turned out to be 18.8 µM.

Turning to `N#Cc1c(N)nc(N2CCSCC2)c(C#N)c1-c1ccc(O)cc1`, the GI50 in test [1] is 18.2 µM; in test [2], 19.8 µM; in test [3] it was 12.6 µM; in test [4], 33.6 µM; in test [5] it was 12.8 µM; in test [6] it was 19.8 µM. Besides, in test [7], the GI50 was 25.1 µM. In addition, the TGI in test [1] is 56.5 µM; in test [2], 50.2 µM; in test [3] it was 28.3 µM; in test [4], above 100 µM; in test [5], 85.8 µM; in test [6], 58.3 µM. In test [7], the TGI is above 100 µM.

Consider `O=C(Nc1nc(-c2ccc(Cl)cc2)nc2c1sc(=S)n2-c1ccccc1)C(F)(F)F`, for which the GI50 in test [1] was 4.45 µM; in test [2] it was 11.3 µM; in test [3], 2.83 µM; in test [4], 4.21 µM; in test [5], 2.05 µM; in test [6], 6.37 µM. Also, in test [7], the GI50 is 3.37 µM. Besides, the TGI was 24.3 µM in test [1]; 45.3 µM in test [2]; 7.98 µM in test [3]; 21.1 µM in test [4]; 5.05 µM in test [5]; above 100 µM in test [6]. In test [7], this compound gave a TGI of 9.7 µM.

Turning to `O=C(Nc1cccc(Cl)c1)c1cc(N=Nc2ccc([N+](=O)[O-])cc2Cl)ccc1O`, the GI50 in test [1] was 2.22 µM; in test [2], 2.86 µM; in test [3], 3.27 µM; in test [4] it was 3.04 µM; in test [5], 1.62 µM; in test [6] it was 1.95 µM. Also, the GI50 in test [7] is 1.95 µM. The TGI in test [1] stood at 11.4 µM; in test [2] it was 8.87 µM; in test [3] it was 9.46 µM; in test [4], 18 µM; in test [5], 5.57 µM; in test [6] it was 4.72 µM. The compound further registered a TGI in test [7] of 7.71 µM.

In the case of `COc1ccc(/C=C2\CC(C)CC3C2=NN(c2ccccc2)C3c2ccc(OC)c(OC)c2)cc1OC` (configuration not stated), the GI50 in test [1] is 3.31 µM; in test [2], 3.45 µM; in test [3], 4.87 µM; in test [4], 6.78 µM; in test [5], 4.48 µM; in test [6], 1.85 µM. The GI50 in test [7] is above 100 µM. For the same compound, the TGI in test [1] is 37.2 µM; in test [2], 14.5 µM; in test [3], 17 µM; in test [4], above 100 µM; in test [5], above 100 µM; in test [6], 5.4 µM. For the same compound, in test [7], the TGI is above 100 µM.
